Experimental data published in article PMC6496074, “The Evolution of Azole Resistance in Candida albicans Sterol 14α-Demethylase (CYP51) through Incremental Amino Acid Substitutions” (Antimicrobial Agents and Chemotherapy, 2019).

How the values were obtained:
Assay in all cases: Azole ligand binding (type II difference spectra)
CaCYP51 D278N+G464S = target: T1, CaCYP51 D278N+G464S (Candida albicans, UniProt P10613, D278N/G464S)
T1 construct: made in house; host or cells: E. coli DH5α (pCWori+)
Method: (§1) Studies of azole antifungal binding to 4 μM CaCYP51 proteins were performed as previously described ([53]) using quartz split cuvettes with a 4.5-mm light path. […] Azole antifungals were progressively titrated against the CaCYP51 proteins in 0.1 M Tris-HCl (pH 8.1) and 25% glycerol at 22°C, with equivalent volumes of dimethyl sulfoxide also being added to the CYP51-containing compartment of the reference cuvette. The absorbance difference spectra between 500 and 350 nm were determined after each incremental addition of azole, with binding saturation curves constructed from the change in the peak and trough absorbance (ΔApeak-trough) against the azole concentration. The dissociation constant (Kd) of the enzyme-azole complex for each azole was determined by nonlinear regression (Levenberg-Marquardt algorithm) using a rearrangement of the Morrison equation for tight ligand binding ([54], [55]). Tight binding is normally observed when the Kd for a ligand is similar to or lower than the concentration of the enzyme present ([56]). Where ligand binding was weak, the Michaelis-Menten equation was used to fit the data. Each binding determination was performed in triplicate. The chemical structures of the azole antifungals used in this study are shown in Fig. S5 in the supplemental material.

CaCYP51 K143R = target: T2, CaCYP51 K143R (Candida albicans, UniProt P10613, K143R); details: 4 μM protein, 22°C, ± standard deviation, triplicate, read-out: dissociation constant (Kd)
T2 construct: made in house; host or cells: E. coli DH5α (pCWori+)
T2 sequence (P10613 whole entry, looked up, stated change not applied): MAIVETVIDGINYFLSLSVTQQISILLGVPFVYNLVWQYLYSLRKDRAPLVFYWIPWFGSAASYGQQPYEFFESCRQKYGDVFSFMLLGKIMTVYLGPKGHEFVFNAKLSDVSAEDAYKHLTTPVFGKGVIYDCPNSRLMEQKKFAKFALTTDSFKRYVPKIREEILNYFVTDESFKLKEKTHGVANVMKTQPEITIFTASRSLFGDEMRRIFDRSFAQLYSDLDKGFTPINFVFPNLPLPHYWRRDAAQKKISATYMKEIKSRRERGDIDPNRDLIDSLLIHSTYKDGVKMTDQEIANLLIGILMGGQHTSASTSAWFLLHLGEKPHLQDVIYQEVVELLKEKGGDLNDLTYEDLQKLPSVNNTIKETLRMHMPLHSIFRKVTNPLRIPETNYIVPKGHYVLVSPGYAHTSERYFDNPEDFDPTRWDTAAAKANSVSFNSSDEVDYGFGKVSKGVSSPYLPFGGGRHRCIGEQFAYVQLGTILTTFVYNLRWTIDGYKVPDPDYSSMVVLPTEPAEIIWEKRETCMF
Method: as §1

CaCYP51 G307S = target: T3, CaCYP51 G307S (Candida albicans, UniProt P10613, G307S); details: 4 μM protein, 22°C, ± standard deviation, triplicate, read-out: dissociation constant (Kd)
T3 construct: made in house; host or cells: E. coli DH5α (pCWori+)
T3 sequence (P10613 whole entry, looked up, stated change not applied): as above
Method: as §1

T1 sequence (P10613 whole entry, looked up, stated change not applied): as above

## OC(Cn1cncn1)(Cn1cncn1)c1ccc(F)cc1F [Fluconazole, fluconazole]
CaCYP51 D278N+G464S
  apparent Kd, fold lower than wild-type enzyme: 3 fold
CaCYP51 D278N+G464S; 4 μM protein, 22°C, ± standard deviation, triplicate, read-out: dissociation constant (Kd)
  Kd: 15 ± 9 nM
CaCYP51 K143R
  Kd: 118 ± 24 nM
CaCYP51 G307S
  Kd: 133 ± 13 nM
